Our source for the T/C values is PubChem BioAssay AID298 (DTP/NCI, 2004).

The structures appear in SMILES notation. Values joined by “and” are separate entries in the source; they are usually repeats but may differ in a detail not shown here. Equal entries are not always repeated. Records with an inconclusive call do not appear.

This assay has as its system MX-1 breast xenograft, intrarenal, nude mice, tumor weight. Nature of the assay: NCI In Vivo Anticancer Drug Screen. Data for tumor model Human Mammary Carcinoma MX-1 Xenograft (intrarenal inoculation) in NU/NU BALB/C (nude) mice. The settings on record: endpoint: mean tumor weight change, higher = larger tumour. An outline of the steps: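 Compounds were given to mice carrying transplanted tumors, and tumor size or survival was measured. Each value is the treated-group measurement (T) divided by the vehicle-treated control-group measurement (C).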
On the technique in general: Xenograft models place foreign cells or tissue in a host animal.

Where [1] appears, read: dose: 100.0 mg/kg/injection, schedule: Q01DX010 (sc), vehicle: saline with Tween-80.
[2] abbreviates: dose: 400.0 mg/kg/injection, schedule: Q01DX010 (sc), vehicle: saline with Tween-80.
The mark [3] stands for this setting: dose: 800.0 mg/kg/injection, schedule: Q01DX010 (sc), vehicle: saline with Tween-80.
Setting [4] is: dose: 300.0 mg/kg/injection, schedule: Q04DX003 (sc), vehicle: saline.
[5] abbreviates: dose: 1200.0 mg/kg/injection, schedule: Q04DX003 (sc), vehicle: saline.
[6] abbreviates: dose: 2400.0 mg/kg/injection, schedule: Q04DX003 (sc), vehicle: saline.
Setting [7] is: dose: 50.0 mg/kg/injection, schedule: Q04DX003 (ip), vehicle: saline with Tween-80.
The mark [8] stands for this setting: dose: 100.0 mg/kg/injection, schedule: Q04DX003 (ip), vehicle: saline with Tween-80.
The mark [9] stands for this setting: dose: 200.0 mg/kg/injection, schedule: Q04DX003 (sc), vehicle: saline with Tween-80.
The mark [10] stands for this setting: dose: 400.0 mg/kg/injection, schedule: Q04DX003 (sc), vehicle: saline with Tween-80.
Setting [11] is: dose: 800.0 mg/kg/injection, schedule: Q04DX003 (sc), vehicle: saline with Tween-80.
Setting [12] is: dose: 1600.0 mg/kg/injection, schedule: Q04DX003 (sc), vehicle: saline with Tween-80.
The mark [13] stands for this setting: dose: 300.0 mg/kg/injection, schedule: Q04DX003 (sc), vehicle: saline with Tween-80.
Where [14] appears, read: dose: 600.0 mg/kg/injection, schedule: Q04DX003 (sc), vehicle: saline with Tween-80.
[15] abbreviates: dose: 1200.0 mg/kg/injection, schedule: Q04DX003 (sc), vehicle: saline with Tween-80.
The mark [16] stands for this setting: dose: 600.0 mg/kg/injection, schedule: Q04DX003 (sc), vehicle: saline.

`Clc1ccc(CN2COc3c(ccc4cccnc34)C2)cc1Cl`: the T/C under setting [1] was 91 % of control, the T/C under setting [2] is 71 % of control and the T/C under setting [3] is 44 % of control.

Turning to `CN(C)[C@@H]1C(=O)C(C(N)=O)=C(O)[C@@]2(O)C(=O)C3=C(O)c4c(O)ccc(Cl)c4[C@@](C)(O)[C@H]3C[C@@H]12`, the T/C by setting is: under setting [4], 155 % of control; under setting [5], 113 % of control; under setting [6], 70 % of control.

For the compound `CO[C@H]1C[C@@H]2CC[C@@H](C)[C@@](O)(O2)C(=O)C(=O)N2CCCC[C@H]2C(=O)O[C@H]([C@H](C)C[C@@H]2CC[C@@H](O)[C@H](OC)C2)CC(=O)[C@H](C)C=C(C)[C@@H](O)[C@@H](OC)C(=O)[C@H](C)C[C@H](C)/C=C/C=C/C=C1C`, the T/C by setting is: under setting [1], 30 % of control; (dose: 200.0 mg/kg/injection, schedule: Q01DX010 (sc), vehicle: saline with Tween-80) 22 % of control; under setting [2], 54 % of control; under setting [3], 54 % of control.

For `Nc1ncnc2c1ncn2C1OC(CO)C(O)C1O` (stereo unspecified), the T/C (dose: 150.0 mg/kg/injection, schedule: Q04DX003 (sc), vehicle: saline) was 3 % of control and 23 % of control.

With `N/C(=N/N=C/c1cc(Br)cc(Br)c1O)NO`, the T/C reads like this: (dose: 50.0 mg/kg/injection, schedule: Q04DX003 (ip), vehicle: suspension in saline) 107 % of control; (dose: 200.0 mg/kg/injection, schedule: Q04DX003 (ip), vehicle: suspension in saline) 27 % of control.

As for `O=C1N[C@H]2[C@H](O)[C@H](O)[C@@H](O)[C@H](O)[C@@H]2c2cc3c(c(O)c21)OCO3`, the T/C (dose: 12.5 mg/kg/injection, schedule: Q04DX003 (ip), vehicle: saline + alcohol) was 72 % of control.

In the case of `OC1OC2COC(c3ccccc3)OC2C(O)C1O` (stereo unspecified), the T/C by setting is: (dose: 300.0 mg/kg/injection, schedule: Q04DX003 (sc), vehicle: water) 57 % of control; (dose: 600.0 mg/kg/injection, schedule: Q04DX003 (sc), vehicle: water) 91 % of control; (dose: 1200.0 mg/kg/injection, schedule: Q04DX003 (sc), vehicle: water) 91 % of control; (dose: 2400.0 mg/kg/injection, schedule: Q04DX003 (sc), vehicle: water) 105 % of control.

Regarding `CN(C)c1ccc(C(=C2C=CC(=[N+](C)C)C=C2)c2ccc(N(C)C)cc2)cc1` (tested in a mixture with another compound), the T/C (dose: 15.0 mg/kg/injection, schedule: Q04DX003 (sc), vehicle: saline with Tween-80) was 124 % of control; the T/C (dose: 30.0 mg/kg/injection, schedule: Q04DX003 (sc), vehicle: saline with Tween-80) was 84 % of control; the T/C (dose: 60.0 mg/kg/injection, schedule: Q04DX003 (sc), vehicle: saline with Tween-80) is 98 % of control; the T/C (dose: 120.0 mg/kg/injection, schedule: Q04DX003 (sc), vehicle: saline with Tween-80) is 75 % of control; the T/C (dose: 150.0 mg/kg/injection, schedule: Q04DX003 (sc), vehicle: saline with Tween-80) was 73 % of control.

Consider `Cc1ccc(C(=Nc2ccccc2)N=P(c2ccccc2)(c2ccccc2)c2ccccc2)cc1`, for which the T/C is 68 % of control under setting [7] and 45 % of control under setting [8].

Regarding `Cc1cc2cc3cc(C)c(N)cc3nc2cc1N`, the T/C by setting is: under setting [9], 161 % of control; under setting [10], 106 % of control; under setting [11], 107 % of control; under setting [12], 107 % of control.

`CNc1nc(N(C)C)nc(N(C)C)n1`: the T/C runs as follows: (dose: 30.0 mg/kg/injection, schedule: Q01DX010 (sc), vehicle: water) 1 % of control; (dose: 60.0 mg/kg/injection, schedule: Q01DX010 (sc), vehicle: water) -31 % of control; (dose: 120.0 mg/kg/injection, schedule: Q01DX010 (sc), vehicle: water) -94 % of control.

`CCOC(=O)c1ccc(NN=NCCF)cc1`: the T/C is 99 % of control (dose: 150.0 mg/kg/injection, schedule: Q04DX003 (ip), vehicle: distilled water + Tween-80 + alcohol); 89 % of control (dose: 300.0 mg/kg/injection, schedule: Q04DX003 (ip), vehicle: distilled water + Tween-80 + alcohol); 84 % of control (dose: 600.0 mg/kg/injection, schedule: Q04DX003 (ip), vehicle: distilled water + Tween-80 + alcohol); 49 % of control (dose: 1200.0 mg/kg/injection, schedule: Q04DX003 (ip), vehicle: distilled water + Tween-80 + alcohol).

Take `CCOC(=O)[C@]1(Br)CC[C@@]1(Br)C(=O)OCC`: the T/C is, setting by setting: under setting [13], 99 % of control; under setting [14], 96 % of control; under setting [15], 94 % of control.

On to `O=C(Nc1cccc(Cl)c1)ON1C(=O)C2C(C1=O)C1(Cl)C(Cl)C(Cl)C2(Cl)C1(Cl)Cl` (stereo unspecified), for which the T/C under setting [13] was 91 % of control; the T/C under setting [14] was 100 % of control; the T/C under setting [15] was 91 % of control; the T/C (dose: 2400.0 mg/kg/injection, schedule: Q04DX003 (sc), vehicle: saline with Tween-80) is 114 % of control.

As to `Clc1ccccc1C(Nc1cnccn1)Nc1cnccn1`, the T/C (dose: 300.0 mg/kg/injection, schedule: Q04DX003 (ip), vehicle: saline with Tween-80) was 70 % of control and 89 % of control.

For the compound `CCN(CC)CCOCCO`, under setting [16], the T/C was 121 % of control.

Turning to `[N-]=[N+]=[N-]`, the T/C was 66 % of control (dose: 1.5 mg/kg/injection, schedule: Q04DX003 (ip), vehicle: water); 66 % of control (dose: 6.0 mg/kg/injection, schedule: Q04DX003 (ip), vehicle: water); 64 % of control (dose: 12.0 mg/kg/injection, schedule: Q04DX003 (ip), vehicle: water).

With `NC(N)=NOCC[C@@H](N)C(=O)O`, the T/C reads like this: under setting [4], 87 % of control; under setting [16], 111 % of control; under setting [5], 86 % of control; under setting [6], 77 % of control.

On to `CN(C)CCCOc1nc2c(c(=O)n(C)c(=O)n2C)n1C` (tested in a mixture with another compound), for which the T/C reads like this: (dose: 37.5 mg/kg/injection, schedule: Q04DX003 (ip), vehicle: Klucel (hydroxypropylcellulose) (HPC)) 75 % of control; (dose: 75.0 mg/kg/injection, schedule: Q04DX003 (ip), vehicle: Klucel (hydroxypropylcellulose) (HPC)) 63 % of control and 65 % of control; (dose: 150.0 mg/kg/injection, schedule: Q04DX003 (ip), vehicle: Klucel (hydroxypropylcellulose) (HPC)) 58 % of control and 62 % of control; (dose: 300.0 mg/kg/injection, schedule: Q04DX003 (ip), vehicle: Klucel (hydroxypropylcellulose) (HPC)) 19 % of control and 20 % of control.

Take `CN(C)CCNc1ccc(CO)c2sc3ccc(O)cc3c(=O)c12`: the T/C under setting [7] is 30 % of control; the T/C under setting [8] is 25 % of control and 26 % of control and 28 % of control; the T/C (dose: 200.0 mg/kg/injection, schedule: Q04DX003 (ip), vehicle: saline with Tween-80) was 6 % of control and 17 % of control and 28 % of control; the T/C (dose: 400.0 mg/kg/injection, schedule: Q04DX003 (ip), vehicle: saline with Tween-80) is 5 % of control and 10 % of control and 18 % of control.

Regarding `O=S(=O)(O)O.[NH-]C1CCCCC1[NH-].[Pt+2]` (stereo unspecified), the T/C was 81 % of control (dose: 0.63 mg/kg/injection, schedule: Q01DX010 (sc), vehicle: dextrose); 41 % of control (dose: 1.25 mg/kg/injection, schedule: Q01DX010 (sc), vehicle: dextrose); 6 % of control (dose: 2.5 mg/kg/injection, schedule: Q01DX010 (sc), vehicle: dextrose).

Consider `COc1cc(C(C)(C)C)cc(OC)c1C(O)(c1c(OC)cc(C(C)(C)C)cc1OC)c1c(OC)cc(C(C)(C)C)cc1OC`, for which the T/C runs as follows: under setting [9], 93 % of control; under setting [10], 88 % of control; under setting [11], 96 % of control; under setting [12], 100 % of control.

As for `CN(Cc1cnc2nc(N)nc(N)c2n1)c1ccc(C(=O)NC(CCC(=O)OC(C)(C)C)C(=O)O)cc1` (stereo unspecified), the T/C is, setting by setting: (dose: 25.0 mg/kg/injection, schedule: Q03HX015 (ip), vehicle: sodium bicarbonate) 62 % of control; (dose: 50.0 mg/kg/injection, schedule: Q03HX015 (ip), vehicle: sodium bicarbonate) 110 % of control; (dose: 100.0 mg/kg/injection, schedule: Q03HX015 (ip), vehicle: sodium bicarbonate) 54 % of control; (dose: 200.0 mg/kg/injection, schedule: Q03HX015 (ip), vehicle: sodium bicarbonate) 116 % of control.
